The subject of one assay is GOTO cells. The experiment in a line: aequorin bioluminescence assay in GOTO cells without exogenous MCHR1 (aequorin only, or no plasmids). Format: cell-based, human. As for the experimental part: The aequorin bioluminescence assay can be used to measure the activity of G protein-coupled receptors that couple through the Ga protein subunit family consisting of Gq, G11, and Gi leading to the activation of phospholipase C, mobilization of intracellular calcium and activation of protein kinase C. Measurement of functional MCHR1 expression in GOTO cells transiently expressing aequorin was performed using a Luminoskan RT luminometer (Labsystems Inc., Gaithersburg, Md.) controlled by custom software written for a Macintosh PowerPC 6100.
GOTO cells (1.2×10^7 cells plated 18 hours before transfection in a T75 flask) were transfected with human MCHR1 plasmid DNA and aequorin cDNA using the Lipofectamine 2000 procedure (Life Technologies, Gaithersburg, Md.). Human MCHR1 plasmid DNA contained the open reading frame cDNA (SEQ. ID. NO. 2) encoding the human MCHR1 receptor inserted in the mammalian expression vector pcDNA-3 (Invitrogen, Carlsbad, Calif.). An aequorin expressing plasmid contained the cDNA for aequorin (Button, et al., 1993. Cell Calcium 14, 663-671), inserted in pcDNA-3. Following approximately 40 hours of expression the apo-aequorin in the cells was charged for 1 hour with coelenterazine (10 μM) under reducing conditions (300 μM reduced glutathione) in ECB buffer (140 mM NaCl, 20 mM KCl, 20 mM HEPES-NaOH [pH=7.4], 5 mM glucose, 1 mM MgCl2, 1 mM CaCl2, 0.1 mg/ml bovine serum albumin). The cells were harvested, washed once in ECB medium and resuspended to 500,000 cells/ml or 1,000,000cells/ml.
Lysophosphatidic acid triggers native edg receptors coupled to PLC activation present on GOTO cells. The integrated light emission was recorded over 30 seconds, in 0.5 second units. 20 μL of lysis buffer (0.1% final Triton X-100 concentration) was then injected and the integrated light emission recorded over 10 seconds, in 0.5 second units. The “fractional response” values for each well were calculated by taking the ratio of the integrated response to the initial challenge to the total integrated luminescence including the Triton X-100 lysis response.

A further assay addresses T1, human MCHR1 (Homo sapiens, UniProt Q99705).
T1 construct: expressed in transfected cells; host or cells: GOTO human neuroblastoma cells, transient co-transfection with aequorin cDNA (pcDNA-3, Lipofectamine 2000)
The experiment in a line: aequorin bioluminescence assay in GOTO cells co-transfected with aequorin and human MCHR1. Format: cell-based. The following applies: 1 μM; GOTO cells transfected with AEQ + MCHR1. As for the experimental part:
20 μL of lysis buffer (0.1% final Triton X-100 concentration) was then injected and the integrated light emission recorded over 10 seconds, in 0.5 second units. The “fractional response” values for each well were calculated by taking the ratio of the integrated response to the initial challenge to the total integrated luminescence including the Triton X-100 lysis response.

The target in assay [1] is human melanin-concentrating hormone receptor 1 (MCHR1) (human) (UniProt Q99705). The experiment in a line: cell-based or functional assay.
Setting [2] is: 1 μM, GOTO cells, No Aeq (no aequorin and no MCHR1 plasmid).

Where “and” joins values, the source holds several entries; their conditions need not be identical. Equal values may be shown once. Ends that are not written are not given here.

Chain of human melanin-concentrating hormone receptor 1 (MCHR1) (human) (Q99705 whole entry): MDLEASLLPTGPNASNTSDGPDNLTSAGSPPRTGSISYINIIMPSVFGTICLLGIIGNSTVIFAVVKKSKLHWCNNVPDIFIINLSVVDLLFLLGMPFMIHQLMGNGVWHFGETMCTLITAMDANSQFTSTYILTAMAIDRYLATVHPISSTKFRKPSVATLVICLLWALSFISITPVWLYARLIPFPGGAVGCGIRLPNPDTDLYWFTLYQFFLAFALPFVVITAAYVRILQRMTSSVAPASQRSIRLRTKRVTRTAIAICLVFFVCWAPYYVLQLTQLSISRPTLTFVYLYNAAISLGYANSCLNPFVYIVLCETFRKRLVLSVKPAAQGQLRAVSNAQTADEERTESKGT
T1 sequence (Q99705 whole entry): as above

For lysophosphatidic acid [LPA], the bioluminescence in the assay with GOTO cells (1 μM, GOTO cells transfected with AEQ only (no MCHR1 plasmid)) stood at 5.24 cps; in the assay with GOTO cells (setting [2]) it was 0 cps; on human MCHR1 it was 6.83 cps. For the same substance, the “control response, calcium mobilization via edg receptor (in words)” value with GOTO cells (1 μM, GOTO cells, native edg receptor) was “control response evoked”.
On to “Melanin-concentrating hormone (DFDMLRCMLGRVYRPCWQV; ends and bridges not checked; also: cyclic, ring closure not given here) [MCH]”, for which the bioluminescence in the assay on GOTO cells (setting [2]) amounted to 0 cps. In the assay with GOTO cells (GOTO cells, absence of exogenous MCHR1, background = buffer injection only (ECB)), the “signal over background (in words)” value is recorded as “no signal over background”.
For the substance “Melanin-concentrating hormone (MCH) (from UniProt P20382 147-165) (peptide)”, the aequorin bioluminescence (cps), GOTO cells transfected with AEQ + MCHR1, MCH (1 µM) in assay [1] is 26.4 cps and 26.6 cps.

Values taken from patent publication US20040072287A1 (priority 2003, published 2004).
